Measured values: ChEMBL document CHEMBL4811216, “Chemotherapy for human schistosomiasis: how far have we come? What's new? Where do we go from here?” (RSC Med Chem, 2020)

Assays:
[1] = tested on: Schistosoma mansoni; assay: Antischistosomal activity against adult Schistosoma mansoni assessed as worm mortality at 10 uM measured up to 72 hrs by microscopic method relative to control; type: functional; settings: time hrs <=72
[2] = tested on: Schistosoma mansoni; assay: Antischistosomal activity against Schistosoma mansoni NTS assessed as worm mortality at 10 uM measured up to 72 hrs by microscopic method relative to control; type: functional; settings: time hrs <=72
[3] = tested on: Schistosoma mansoni; assay: Antischistosomal activity against Schistosoma mansoni incubated for 72 hrs by microscopic method; type: functional, organism-based
[4] = tested on: Schistosoma mansoni; assay: Antischistosomal activity against adult Schistosoma mansoni measured up to 72 hrs by microscopic method; type: functional, organism-based
[5] = tested on: Schistosoma mansoni; assay: microbe, parasite or virus in culture; settings: Liberian, 72 h
Description: Antischistosomal activity against Schistosoma mansoni Liberian NTS incubated for 72 hrs by microscopic method

[6] = tested on: Schistosoma mansoni; assay: microbe, parasite or virus in culture; settings: 72 h
Description: Antischistosomal activity against Schistosoma mansoni incubated for 72 hrs by inverted microscopic method

[7] = tested on: Schistosoma haematobium; assay: Antischistosomal activity against Schistosoma haematobium at 10 uM measured after 72 hrs relative to control; type: functional
[8] = target: HDAC1 (histone deacetylase 1) (Homo sapiens, UniProt Q13547); assay: Inhibition of human HDAC1 using Z-Lys(Ac)-AMC as substrate at 1 uM by fluorimetric method relative to control; settings: HDAC1 enzyme, probe Z-Lys(Ac)-AMC
Sequence of HDAC1 (histone deacetylase 1) (Q13547 whole entry): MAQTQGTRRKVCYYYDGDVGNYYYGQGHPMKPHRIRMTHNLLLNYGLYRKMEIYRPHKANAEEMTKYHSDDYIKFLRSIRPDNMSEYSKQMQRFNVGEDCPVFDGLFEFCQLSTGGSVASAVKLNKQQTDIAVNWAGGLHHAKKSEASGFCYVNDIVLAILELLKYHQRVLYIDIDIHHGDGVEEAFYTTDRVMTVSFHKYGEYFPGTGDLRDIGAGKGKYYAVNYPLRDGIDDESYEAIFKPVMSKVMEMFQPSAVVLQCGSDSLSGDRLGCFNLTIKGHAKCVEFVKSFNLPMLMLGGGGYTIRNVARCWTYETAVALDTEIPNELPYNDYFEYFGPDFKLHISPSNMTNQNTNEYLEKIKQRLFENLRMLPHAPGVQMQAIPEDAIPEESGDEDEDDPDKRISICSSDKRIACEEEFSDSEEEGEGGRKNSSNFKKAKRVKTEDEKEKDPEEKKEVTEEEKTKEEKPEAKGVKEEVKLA

Structure (SMILES) | mortality at 10 µM [2] [%] | IC50 [3] [µM] | IC50 [4] [µM] | further results
COc1ncnc(Nc2cc(C(F)(F)F)c(C#N)c3nc4ccccc4n23)c1OC | > 70 | 0.2 | 0.2 | mortality at 10 µM [1]: > 60%
N#Cc1c(C(F)(F)F)cc(NCc2ccco2)n2c1nc1cc(Cl)c(Cl)cc12 | – | 0.2 | – | –
CS(=O)(=O)c1ccc(Nc2cc(C(F)(F)F)c(C#N)c3nc4ccccc4n23)cc1 | > 70 | – | 0.2 | mortality at 10 µM [1]: > 60%
O=S(=O)(Nc1cc(C(F)(F)F)cc2nc3cc(Cl)c(Cl)cc3n12)c1ccc(OC(F)(F)F)cc1 | – | 0.2 | – | –
N#Cc1c(C(F)(F)F)cc(Nc2ccccc2OC(F)(F)F)n2c1nc1ccccc12 | – | 0.2 | – | –
CCNCCNc1cc(-c2ccc(C(F)(F)F)cc2)c(C#N)c2nc3ccccc3n12 | > 70 | – | 0.2 | –
CCNCCNc1cc(-c2cccc(C(F)(F)F)c2)c(C#N)c2nc3ccccc3n12 | > 70 | – | 0.2 | –
N#Cc1c(C(F)(F)F)cc(Nc2ccc3nc(NCCN4CCCC4)oc3c2)n2c1nc1ccccc12 | > 70 | – | 0.2 | mortality at 10 µM [1]: > 60%
CCNCCNc1cc(-c2ccc(C(F)(F)F)cc2)c(C#N)c2nc3cc(Cl)c(Cl)cc3n12 | > 70 | – | 0.2 | –
COc1cccc(-n2nnnc2S(C)(=O)=O)c1 | – | – | – | IC50 [5]: 0.9 µM; IC50 [6]: 6.8 µM; Activity [7]: 87.7%
CCNCCNc1cc(-c2ccc(C(F)(F)F)cc2)c(C#N)c2nc3cccc(Cl)c3n12 | > 70 | – | 0.2 | –
O=C(NO)c1cccc(C(=O)NOCCc2ccccc2)c1 | – | – | – | inhibition at 1 µM [8]: < 10%
O=C(NO)c1cccc(C(=O)NOCc2cccc(Cl)c2Cl)c1 | – | – | – | inhibition at 1 µM [8]: < 10%
N#Cc1ccc(S(=O)(=O)Nc2cc(C(F)(F)F)cc3nc4cc(Cl)c(Cl)cc4n23)cc1 | – | 0.2 | – | –
O=C(NO)c1cccc(C(=O)NNc2ccccc2)c1 | – | – | – | inhibition at 1 µM [8]: < 10%
COc1ccc(Nc2cc(C(F)(F)F)c(C#N)c3nc4ccccc4n23)cc1 | > 70 | – | 0.2 | mortality at 10 µM [1]: > 60%
CN1CCC(Nc2cc(-c3ccc(C(F)(F)F)cc3)c(C#N)c3nc4cc(Cl)c(Cl)cc4n23)CC1 | > 70 | – | 0.2 | –
CCNCCNc1cc(-c2ccc(C(F)(F)F)cc2)c(C#N)c2nc3c(Cl)cc(Cl)cc3n12 | > 70 | – | 0.2 | –
N#Cc1ccc(Nc2cc(C(F)(F)F)c(C#N)c3nc4ccccc4n23)cc1 | > 70 | – | 0.2 | mortality at 10 µM [1]: > 60%
N#Cc1c(-c2ccc(C(F)(F)F)cc2)cc(NC2CCC(N)CC2)n2c1nc1cc(Cl)cc(Cl)c12 (stereo not given) | > 70 | – | 0.2 | –
N#Cc1c(-c2ccc(C(F)(F)F)cc2)cc(NCCn2ccnc2)n2c1nc1ccccc12 | > 70 | – | 0.2 | –

Structure (SMILES) | mortality at 10 µM [2] [%] | IC50 [3] [µM] | IC50 [4] [µM] | further results
CNC1CCN(c2cc(-c3ccc(C(F)(F)F)cc3)c(C#N)c3nc4ccccc4n23)C1 (stereo not given) | > 70 | – | 0.2 | –
N#Cc1c(C(F)(F)F)cc(Nc2ccnc(F)c2)n2c1nc1ccccc12 | > 70 | – | 0.2 | mortality at 10 µM [1]: > 60%
N#Cc1c(C(F)(F)F)cc(NCc2cccc(F)c2)n2c1nc1cc(Cl)c(Cl)cc12 | – | 0.2 | – | –
CN(C)CCNc1nc2ccc(Nc3cc(C(F)(F)F)c(C#N)c4nc5ccccc5n34)cc2o1 | > 70 | – | 0.2 | mortality at 10 µM [1]: > 60%
FC(F)(F)Oc1ccc(Nc2cc(C(F)(F)F)cc3nc4ccccc4n23)cc1 | – | 0.2 | – | –
CN1CCC(Oc2cc(-c3ccc(C(F)(F)F)cc3)c(C#N)c3nc4ccccc4n23)CC1 | > 70 | – | 0.2 | –
c1ccc(Oc2ccc(-c3cncc(-c4ccc5[nH]ccc5c4)n3)cc2)cc1 | – | – | – | IC50 [5]: 2.2 µM; IC50 [6]: 3.4 µM; Activity [7]: 75.4%
N#Cc1c(C(F)(F)F)cc(Nc2cccc(OC(F)(F)F)c2)n2c1nc1ccccc12 | – | 0.2 | – | –
CCNCCNc1cc(-c2ccc(Cl)c(Cl)c2)c(C#N)c2nc3ccccc3n12 | > 70 | – | 0.2 | –
O=C(NO)c1cccc(C(=O)NOCCCc2ccccc2)c1 | – | – | – | inhibition at 1 µM [8]: < 10%
O=C(NO)c1cccc(C(=O)NOCc2ccccc2)c1 | – | – | – | inhibition at 1 µM [8]: < 10%
N#Cc1c(C(F)(F)F)cc(Nc2ccc(CN3CCOCC3)cc2)n2c1nc1ccccc12 | > 70 | – | 0.2 | mortality at 10 µM [1]: > 60%
CC(Nc1cc(C(F)(F)F)cc2nc3cc(Cl)c(Cl)cc3n12)c1ccc(S(C)(=O)=O)cc1 (stereo not given) | – | 0.2 | – | –
N#Cc1c(C(F)(F)F)cc(NCc2ccc(F)cc2)n2c1nc1cc(Cl)c(Cl)cc12 | – | 0.2 | – | –
Cc1cc(C)cc(CONC(=O)c2cccc(C(=O)NO)c2)c1 | – | – | – | inhibition at 1 µM [8]: < 10%
CCNCCNc1cc(C2CCCC2)c(C#N)c2nc3ccccc3n12 | > 70 | – | 0.2 | –
N#Cc1c(C(F)(F)F)cc(NCc2ccccn2)n2c1nc1cc(Cl)c(Cl)cc12 | – | 0.2 | – | –
Cc1ccc(CONC(=O)c2cccc(C(=O)NO)c2)cc1 | – | – | – | inhibition at 1 µM [8]: < 10%
Cn1c(=O)c2c(S(C)(=O)=O)snc2n(C)c1=O | – | – | – | IC50 [5]: 0.8 µM; IC50 [6]: 4.7 µM; Activity [7]: 75.4%
CCNCCNc1cc(-c2ccc(C(F)(F)F)cc2)c(C#N)c2nc3ncccc3n12 | > 70 | – | 0.2 | –
CNc1nnc(Sc2cnn(-c3ccccc3)c(=O)c2Cl)s1 | – | – | – | IC50 [5]: 0.4 µM; IC50 [6]: 2.5 µM; Activity [7]: 100%

Structure (SMILES) | mortality at 10 µM [2] [%] | IC50 [3] [µM] | IC50 [4] [µM] | further results
CCNCCNc1cc(C2CCCCC2)c(C#N)c2nc3ccccc3n12 | > 70 | – | 0.2 | –
O=C(NO)c1cccc(C(=O)NOCc2ccc(F)c(F)c2)c1 | – | – | – | inhibition at 1 µM [8]: < 10%
Cc1csc(Nc2cc(C(F)(F)F)c(C#N)c3nc4ccccc4n23)n1 | > 70 | – | 0.2 | mortality at 10 µM [1]: > 60%
Clc1ccc2c(N3CCNCCN(c4ccnc5cc(Cl)ccc45)CCNCC3)ccnc2c1 | – | 1.6 | – | –
N#Cc1c(C(F)(F)F)cc(NCc2ccc(F)cc2)n2c1nc1cc(Cl)cc(Cl)c12 | – | 0.2 | – | –
Cc1ccc(CNc2cc(C(F)(F)F)c(C#N)c3nc4cc(Cl)c(Cl)cc4n23)cc1 | – | 0.2 | – | –
CCNCCNc1cc(-c2ccc(C(F)(F)F)cc2)c(C#N)c2nc3cccc(Br)c3n12 | > 70 | – | 0.2 | –
CC(C)=CCC/C(C)=C\CNCCNC1C2CC3CC(C2)CC1C3 (stereo not given) | – | – | – | IC50 [5]: 2.9 µM; IC50 [6]: 4.9 µM; Activity [7]: 82.5%
O=C(Nc1ccc(C(F)(F)F)c(C(F)(F)F)c1)c1cc(Cl)ccc1O | – | – | – | IC50 [5]: 0.2 µM; IC50 [6]: 2.1 µM; Activity [7]: 100%
N#Cc1c(C(F)(F)F)cc(Nc2ccccc2)n2c1nc1ccccc12 | > 70 | – | 0.2 | mortality at 10 µM [1]: > 60%
N#Cc1c(C(F)(F)F)cc(Nc2ccc(OC(F)(F)F)cc2)n2c1nc1ccccc12 | – | 0.2 | – | –
O=C(NO)c1cccc(C(=O)NOCc2cccc3ccccc23)c1 | – | – | – | inhibition at 1 µM [8]: < 10%
N#Cc1c(C(F)(F)F)cc(NCc2cccs2)n2c1nc1cc(Cl)c(Cl)cc12 | – | 0.2 | – | –
CCN(CC)CCCC(C)Nc1cc(-c2ccc(C(F)(F)F)cc2)c(C#N)c2nc3ccccc3n12 (stereo not given) | > 70 | – | 0.2 | –
N#Cc1c(C(F)(F)F)cc(NCc2ccc(OC(F)(F)F)cc2)n2c1nc1cc(Cl)c(Cl)cc12 | – | 0.2 | – | –
Nc1nc(NCC2CCC(CNS(=O)(=O)c3ccc4ccccc4c3)CC2)nc2ccccc12 (stereo not given) | – | – | – | IC50 [5]: 0.6 µM; IC50 [6]: 2 µM
N#Cc1c(C(F)(F)F)cc(Nc2cnccn2)n2c1nc1ccccc12 | > 70 | 0.2 | 0.2 | mortality at 10 µM [1]: > 60%
N#Cc1c(C(F)(F)F)cc(Nc2ccc(OC(F)(F)F)cc2)n2c1nc1cc(Cl)c(Cl)cc12 | – | 0.2 | – | –
CCNCCNc1cc(-c2ccc(C(F)(F)F)cc2)c(C#N)c2nc3cc(Cl)ccc3n12 | > 70 | – | 0.2 | –
